Test results published in BindingDB's records for doi:10.1016/j.bmc.2005.12.063 (Kyushu Institute of Technology, 2006).
Peptide text beside a SMILES is read from it.

Legend:
Assay in all cases: HDAC Enzyme Activity Assay
Settings in all cases: pH 8; 37 °C
[1] = molecular target: Histone deacetylase 1 (Homo sapiens, UniProt Q13547)
[2] = molecular target: Histone deacetylase 4 (Homo sapiens, UniProt P56524)
[3] = molecular target: T1, Histone deacetylase 6 (Mus musculus, UniProt Q9Z2V5)
T1 sequence (Q9Z2V5 whole entry): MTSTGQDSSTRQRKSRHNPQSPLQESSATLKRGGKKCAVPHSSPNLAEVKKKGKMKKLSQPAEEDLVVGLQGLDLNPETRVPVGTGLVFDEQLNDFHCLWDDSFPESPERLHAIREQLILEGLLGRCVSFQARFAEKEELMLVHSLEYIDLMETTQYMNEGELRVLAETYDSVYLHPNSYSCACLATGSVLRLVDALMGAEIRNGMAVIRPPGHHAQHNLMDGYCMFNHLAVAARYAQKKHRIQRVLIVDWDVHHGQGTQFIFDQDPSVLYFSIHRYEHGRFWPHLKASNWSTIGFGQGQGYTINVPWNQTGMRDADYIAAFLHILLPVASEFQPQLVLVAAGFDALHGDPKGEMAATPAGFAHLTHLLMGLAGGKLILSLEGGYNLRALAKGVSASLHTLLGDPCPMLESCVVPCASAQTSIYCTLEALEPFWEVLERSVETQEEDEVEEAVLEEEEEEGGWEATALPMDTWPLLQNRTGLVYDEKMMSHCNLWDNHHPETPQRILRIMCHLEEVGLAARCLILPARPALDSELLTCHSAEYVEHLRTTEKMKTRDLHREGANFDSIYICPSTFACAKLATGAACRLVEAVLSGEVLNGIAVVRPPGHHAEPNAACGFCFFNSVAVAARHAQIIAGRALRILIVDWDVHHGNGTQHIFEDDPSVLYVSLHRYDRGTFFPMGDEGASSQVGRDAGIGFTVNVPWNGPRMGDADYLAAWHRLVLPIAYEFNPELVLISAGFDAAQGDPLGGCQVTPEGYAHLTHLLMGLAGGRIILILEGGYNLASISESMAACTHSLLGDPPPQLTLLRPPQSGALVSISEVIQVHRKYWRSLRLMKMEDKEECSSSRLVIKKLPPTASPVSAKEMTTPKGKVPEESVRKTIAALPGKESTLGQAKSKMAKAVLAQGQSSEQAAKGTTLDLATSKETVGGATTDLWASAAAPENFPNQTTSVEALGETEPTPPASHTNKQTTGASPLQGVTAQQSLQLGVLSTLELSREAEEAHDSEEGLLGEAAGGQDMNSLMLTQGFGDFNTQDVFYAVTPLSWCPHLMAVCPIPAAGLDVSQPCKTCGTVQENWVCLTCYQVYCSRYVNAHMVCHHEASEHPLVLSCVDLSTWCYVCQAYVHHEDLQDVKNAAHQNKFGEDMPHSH

Histone deacetylase 1, sequence (Q13547 whole entry): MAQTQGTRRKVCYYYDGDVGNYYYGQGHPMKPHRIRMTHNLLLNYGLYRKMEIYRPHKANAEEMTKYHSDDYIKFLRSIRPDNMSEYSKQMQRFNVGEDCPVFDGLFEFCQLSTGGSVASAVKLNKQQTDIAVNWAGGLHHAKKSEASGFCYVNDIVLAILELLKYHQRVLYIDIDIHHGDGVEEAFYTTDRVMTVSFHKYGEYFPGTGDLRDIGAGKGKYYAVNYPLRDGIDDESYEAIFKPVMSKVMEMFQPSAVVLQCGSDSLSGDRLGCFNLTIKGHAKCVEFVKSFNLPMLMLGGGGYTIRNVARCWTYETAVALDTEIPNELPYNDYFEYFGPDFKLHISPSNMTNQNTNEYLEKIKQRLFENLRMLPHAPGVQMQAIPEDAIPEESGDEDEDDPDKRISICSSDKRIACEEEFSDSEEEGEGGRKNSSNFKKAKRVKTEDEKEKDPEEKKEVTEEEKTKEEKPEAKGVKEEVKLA
Histone deacetylase 4, sequence (P56524 whole entry): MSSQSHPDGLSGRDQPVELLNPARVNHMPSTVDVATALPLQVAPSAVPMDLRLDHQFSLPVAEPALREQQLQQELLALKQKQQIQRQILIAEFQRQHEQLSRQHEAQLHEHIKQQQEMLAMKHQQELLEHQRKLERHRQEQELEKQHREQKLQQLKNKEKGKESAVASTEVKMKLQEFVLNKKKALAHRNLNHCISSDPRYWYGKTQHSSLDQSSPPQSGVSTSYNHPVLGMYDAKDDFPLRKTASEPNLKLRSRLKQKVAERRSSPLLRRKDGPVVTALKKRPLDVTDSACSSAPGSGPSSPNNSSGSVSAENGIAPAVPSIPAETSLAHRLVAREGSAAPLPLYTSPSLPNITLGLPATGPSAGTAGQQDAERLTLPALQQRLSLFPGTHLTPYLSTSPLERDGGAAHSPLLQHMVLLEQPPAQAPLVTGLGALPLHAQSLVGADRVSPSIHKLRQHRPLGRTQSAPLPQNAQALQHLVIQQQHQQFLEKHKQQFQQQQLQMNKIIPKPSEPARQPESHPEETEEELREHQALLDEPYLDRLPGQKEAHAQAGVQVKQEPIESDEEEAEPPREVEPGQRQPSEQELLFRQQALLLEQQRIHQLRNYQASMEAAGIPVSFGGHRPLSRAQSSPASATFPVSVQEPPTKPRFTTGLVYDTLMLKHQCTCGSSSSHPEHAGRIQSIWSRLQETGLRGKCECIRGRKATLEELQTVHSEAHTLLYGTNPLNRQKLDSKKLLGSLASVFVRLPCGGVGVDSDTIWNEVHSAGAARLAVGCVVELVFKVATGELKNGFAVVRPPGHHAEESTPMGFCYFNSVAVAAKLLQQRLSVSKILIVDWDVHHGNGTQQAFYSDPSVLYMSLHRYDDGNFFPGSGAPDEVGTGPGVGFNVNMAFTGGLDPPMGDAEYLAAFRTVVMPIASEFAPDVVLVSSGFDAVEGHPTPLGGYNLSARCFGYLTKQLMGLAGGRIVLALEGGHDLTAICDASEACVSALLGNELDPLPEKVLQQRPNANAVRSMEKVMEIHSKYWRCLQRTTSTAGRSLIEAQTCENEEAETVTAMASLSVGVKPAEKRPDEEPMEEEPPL

Row | SMILES | IC50 [1] [µM] | IC50 [2] [µM] | IC50 [3] [µM]
1 | CC1(C)NC(=O)[C@H](CCCCCC=O)NC(=O)[C@H]2CCCN2C(=O)[C@H](Cc2ccccc2)NC1=O [6-[(3S,9S,14aR)-9-benzyl-6,6-dimethyl-1,4,7,10-tetraoxo-tetradecahydropyrrolo[1,2-a][,,,]cyclododecan-3-yl]hexanal] | 4.33 | 1.29 | 14.1
2 | CC1(C)NC(=O)[C@H](CCCCCC(O)CO)NC(=O)[C@H]2CCCN2C(=O)[C@H](Cc2ccccc2)NC1=O (stereo partly drawn) [(3S,9S,14aR)-9-benzyl-3-(6,7-dihydroxyheptyl)-6,6-dimethyl-tetradecahydropyrrolo[1,2-a][,,,]cyclododecane-1,4,7,10-tetrone] | > 100 | > 100 | > 100
3 | C=CCCCCC[C@@H]1NC(=O)[C@H]2CCCN2C(=O)[C@H](Cc2ccccc2)NC(=O)C(C)(C)NC1=O [(3S,9S,14aR)-9-benzyl-3-(hept-6-en-1-yl)-6,6-dimethyl-tetradecahydropyrrolo[1,2-a][,,,]cyclododecane-1,4,7,10-tetrone] (HELM PEPTIDE1{[Aib].F.[dP].[C=CCCCCC[C@H](N[*:1])C(=O)[*:2]]}$PEPTIDE1,PEPTIDE1,1:R1-4:R2$$$V2.0) | > 100 | > 100 | > 100
4 | CC1(C)NC(=O)[C@H](CCCCCC(=O)CO)NC(=O)[C@H]2CCCN2C(=O)[C@H](Cc2ccccc2)NC1=O [(3S,9S,14aR)-9-benzyl-3-(7-hydroxy-6-oxoheptyl)-6,6-dimethyl-tetradecahydropyrrolo[1,2-a][,,,]cyclododecane-1,4,7,10-tetrone] | 0.223 | 0.0604 | 0.887
5 | CC1(C)NC(=O)[C@H](CCCCCC(=O)CBr)NC(=O)[C@H]2CCCN2C(=O)[C@H](Cc2ccccc2)NC1=O [(3S,9S,14aR)-9-benzyl-3-(7-bromo-6-oxoheptyl)-6,6-dimethyl-tetradecahydropyrrolo[1,2-a][,,,]cyclododecane-1,4,7,10-tetrone] |  | 0.0595 | 
6 | CC1(C)NC(=O)[C@H](CCCCCC2CO2)NC(=O)[C@H]2CCCN2C(=O)[C@H](Cc2ccccc2)NC1=O (stereo partly drawn) [(3S,9S,14aR)-9-benzyl-6,6-dimethyl-3-[5-(oxiran-2-yl)pentyl]-tetradecahydropyrrolo[1,2-a][,,,]cyclododecane-1,4,7,10-tetrone] | 4.69 | 4.05 | > 100
7 | CC(=O)CCCCC[C@@H]1NC(=O)[C@H]2CCCN2C(=O)[C@H](Cc2ccccc2)NC(=O)C(C)(C)NC1=O [(3S,9S,14aR)-9-benzyl-6,6-dimethyl-3-(6-oxoheptyl)-tetradecahydropyrrolo[1,2-a][,,,]cyclododecane-1,4,7,10-tetrone] | 1.08 | 0.29 | 3.7
